Literature values in patent publication US12171766B2, “Methods of treating patients suffering from brain injury and methods of increasing the value of the extended Glasgow Outcome Scale of patients suffering from brain injury” (VERINOS OPERATIONS GMBH, priority 2021, dated 2024).

System: animal models of TBI
Conditions: mice, Terpolilli et al. 2009; cited from earlier work

CC(O)C(O)C1CNc2nc(N)nc(N)c2N1 [Ronopterin, 4-Amino-(6R,S)-5,6,7,8-tetrahydro-L-biopterin]
effect in animal models of TBI: beneficial
